Measurements from patent US20030166202A1, “P450 Monooxygenases of the cyp79 family” (priority 2000, published 2003).

T1: CYP79A2 (Arabidopsis thaliana, UniProt Q9FLC8)
T1 sequence (Q9FLC8 7-529 limits assumed): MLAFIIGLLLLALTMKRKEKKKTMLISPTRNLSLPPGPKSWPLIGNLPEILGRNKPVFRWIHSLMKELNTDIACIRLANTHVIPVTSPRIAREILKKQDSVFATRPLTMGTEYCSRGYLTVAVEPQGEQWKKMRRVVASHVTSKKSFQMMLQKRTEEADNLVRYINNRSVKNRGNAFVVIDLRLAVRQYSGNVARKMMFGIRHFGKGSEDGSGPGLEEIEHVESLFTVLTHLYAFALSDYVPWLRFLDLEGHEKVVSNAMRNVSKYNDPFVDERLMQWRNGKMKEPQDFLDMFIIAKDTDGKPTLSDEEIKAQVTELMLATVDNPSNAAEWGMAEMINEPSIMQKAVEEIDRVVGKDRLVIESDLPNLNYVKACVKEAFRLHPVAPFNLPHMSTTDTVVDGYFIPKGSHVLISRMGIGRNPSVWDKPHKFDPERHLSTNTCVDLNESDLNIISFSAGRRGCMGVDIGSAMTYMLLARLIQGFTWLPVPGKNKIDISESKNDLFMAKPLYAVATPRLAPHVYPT

T2: CYP79B2 (Arabidopsis thaliana, UniProt O81346)
T2 sequence (O81346 1-541): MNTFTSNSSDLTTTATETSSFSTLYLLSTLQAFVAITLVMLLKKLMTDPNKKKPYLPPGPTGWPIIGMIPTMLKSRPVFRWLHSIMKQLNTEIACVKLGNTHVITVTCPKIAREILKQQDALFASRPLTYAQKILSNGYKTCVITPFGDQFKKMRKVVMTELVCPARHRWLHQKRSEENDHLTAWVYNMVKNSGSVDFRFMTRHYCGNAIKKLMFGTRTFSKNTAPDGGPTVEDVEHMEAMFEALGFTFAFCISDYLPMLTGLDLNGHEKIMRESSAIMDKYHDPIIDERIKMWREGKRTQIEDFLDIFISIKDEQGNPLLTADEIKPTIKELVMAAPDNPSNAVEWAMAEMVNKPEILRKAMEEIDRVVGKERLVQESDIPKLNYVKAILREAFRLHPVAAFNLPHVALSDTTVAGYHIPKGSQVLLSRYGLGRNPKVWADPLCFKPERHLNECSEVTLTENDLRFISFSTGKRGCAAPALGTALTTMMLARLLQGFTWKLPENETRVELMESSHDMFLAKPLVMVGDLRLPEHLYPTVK


Columns and labels:
[1] = Non-enzymatic conversion of tryptophan under oxidative conditions; conditions: 100 mM H2O2, 1 mM MnCl2, 800 μM 2,4-dichlorophenol in 50 mM Tricine buffer, pH 8.0, no enzyme
CYP79A2 = target: T1, CYP79A2; experiment: CYP79A2 activity in E. coli spheroplasts reconstituted with NADPH:cytochrome P450 oxidoreductase
CYP79F1 = CYP79F1 (Arabidopsis thaliana, UniProt Q949U1, M2A); conditions: E. coli C43(DE3) spheroplasts, GC-MS or TLC
CYP79F1, sequence (Q949U1 whole entry M2A): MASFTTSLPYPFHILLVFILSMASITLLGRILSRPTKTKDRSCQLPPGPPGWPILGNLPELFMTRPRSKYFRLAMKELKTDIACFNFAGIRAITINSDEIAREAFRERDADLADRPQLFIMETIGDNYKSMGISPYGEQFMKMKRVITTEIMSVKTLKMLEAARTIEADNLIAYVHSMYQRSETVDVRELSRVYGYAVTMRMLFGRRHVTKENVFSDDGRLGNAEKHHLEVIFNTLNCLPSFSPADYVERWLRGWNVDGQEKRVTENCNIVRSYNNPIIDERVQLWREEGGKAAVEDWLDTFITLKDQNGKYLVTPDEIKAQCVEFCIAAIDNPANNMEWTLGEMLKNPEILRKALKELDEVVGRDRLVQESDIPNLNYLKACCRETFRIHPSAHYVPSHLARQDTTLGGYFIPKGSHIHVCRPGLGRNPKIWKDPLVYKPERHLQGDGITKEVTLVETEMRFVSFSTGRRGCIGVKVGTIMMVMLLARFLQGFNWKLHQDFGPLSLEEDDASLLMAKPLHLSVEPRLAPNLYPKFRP
Description: In a typical enzyme assay, 5 μl spheroplasts and 4 μl NADPH:cytochrome P450 reductase (equivalent to 0.04 units defined as 1 μmol cytochrome c/min) are incubated with substrate in buffer containing 30 mM KPi, pH 7.5, 3 mM NADPH, 3 mM reduced glutathione, 0.042% Tween 80, 1 mg ml^−1 L-α-dilauroylphosphatidylcholine in a total volume of 30 μl. Reaction mixtures containing spheroplasts of E. coli C43(DE3) transformed with empty vector are used as controls in all assays. 3.3 μM L-[U-^14C]phenylalanine (453 mCi/mmol; Pharmacia), 3.7 μM L-[U-^14C]tyrosine (449 mCi/mmol; Pharmacia), 0.1 mM L-[methyl-^14C]methionine (56 mCi/mmol; Pharmacia), and 24 μM L-[side chain-3-^14C]tryptophan (56.5 mCi/mmol; NEN) are tested as potential substrates. After incubation at 28° C. for 1 hour, half of the reaction mixture is analyzed by TLC on Silica Gel 60 F254 sheets (Merck) using toluene/ethyl acetate 5:1 (v/v) as eluent. Radiolabelled bands are visualized and quantified using a STORM 840 phosphoimager (Pharmacia). For GC-MS analysis, 450 μl reaction mixture containing 3.3 mM L-methionine (Sigma), 3.3 mM DL-dihomomethionine or 3.3 mM DL-trihomomethionine, respectively, are incubated for 4 hours at 25° C. and extracted with a total volume of 600 μl CHCl3. The organic phase is collected, evaporated, and the residue is dissolved in 15 μl CHCl3 and analyzed by GC-MS. […] An SGE column (BPX5, 25 m×0.25 mm, 0.25 μm film thickness) is used (heat pressure 100 kPa, splitless injection). The oven temperature program is as follows: 80° C. for 3 minutes, 80° C. to 180° C. at 5° C. min^−1, 180° C. to 300° C. at 20° C. min^−1, and 300° C. for 10 min. The ion source is run in EI mode (70 eV) at 200° C. […] DL-dihomomethionine, DL-trihomomethionine, 5-methylthiopentanaldoxime and 6-methylthiohexanaldoxime are synthesized as described (Dawson et al, J. Biol. Chem. 268: 27154-27159, 1993) and authenticated by NMR spectroscopy.

CYP79B2 = target: T2, CYP79B2; experiment: CYP79B2 activity in E. coli spheroplasts reconstituted with NADPH:cytochrome P450 reductase
Description: The activity of CYP79B2 is measured by reconstituting spheroplasts from E. coli expressing CYP79B2 with purified NADPH:cytochrome P450 reductase from Sorghum bicolor (L.) Moench. […] The reaction is incubated at 34° C. for 30 minutes, extracted two times with ethyl acetate and the ethyl acetate phase is analyzed by TLC using toluen:ethyl acetate 5:1 as eluent. Radiolabelled bands are visualized on a Storm 840 phosphorimager (Molecular Dynamics) and quantified with ImageQuant analysis software (Molecular Dynamics). Substrate specificity is investigated by substituting the ^14C-labelled tryptophan with ^14C-labelled tyrosine or phenylalanine. GC-MS is employed to verify the structure of the compound produced from tryptophan by recombinant CYP79B2. A 450 μl reaction mixture as described above containing 2 mM unlabelled tryptophan is incubated at 34° C. for 2 hours. The reaction mixture is extracted twice with 300 μl CHCl3 and lyophilized until dryness. GC-MS is performed with an HP5890 Series II gas chromatograph coupled to a Jeol JMS-AX505W mass spectrometer. Splitless injection on an SGE column (BPX5, 25 mm×0.25 mm, 0.25 μm film thickness) and a head pressure of 100 kPa are used.
Single colonies are grown overnight at 37° C. in LB medium containing 100 μg/ml ampicillin. 1 ml of the overnight culture is used to inoculate 75 ml TB medium containing 100 μg/ml ampicillin, 75 μg/ml δ-aminolevulinic acid, 1 mM thiamine and 1 mM IPTG. The TB cultures are grown for 44 hours at 125 rpm and 28° C.

[2] = substrate: N[C@@H](Cc1c[nH]c2ccccc12)C(=O)O; experiment: purified protein, by the assay type; conditions: other: native CYP79B2 construct; pH 7.9

Molecule | conversion rate to compound co-migrating with IAOX relative to CYP79B2 [1] | production of the respective aldoxime by CYP79A2 (CYP79A2) | formation of the corresponding aldoxime by CYP79F1 (CYP79F1) | Vmax (CYP79B2; native CYP79B2 construct) [pmol/h/μl spheroplast] | oxime production by CYP79B2 (CYP79B2; radiolabelled amino acid, TLC) | Km [2] [µM]
N[C@@H](Cc1c[nH]c2ccccc12)C(=O)O [L-tryptophan] | approximately 0.7% | does not result in production of detectable amounts of the respective aldoximes | did not result in the formation of detectable amounts of the corresponding aldoximes | 97.2 | production of a strong band that co-migrates with authentic IAOX standard | –
CYP79B2 (Arabidopsis thaliana) (protein) MNTFTSNSSDLTTTATETSSFSTLYLLSTLQAFVAITLVMLLKKLMTDPNKKKPYLPPGPTGWPIIGMIPTMLKSRPVFRWLHSIMKQLNTEIACVKLGNTHVITVTCPKIAREILKQQDALFASRPLTYAQKILSNGYKTCVITPFGDQFKKMRKVVMTELVCPARHRWLHQKRSEENDHLTAWVYNMVKNSGSVDFRFMTRHYCGNAIKKLMFGTRTFSKNTAPDGGPTVEDVEHMEAMFEALGFTFAFCISDYLPMLTGLDLNGHEKIMRESSAIMDKYHDPIIDERIKMWREGKRTQIEDFLDIFISIKDEQGNPLLTADEIKPTIKELVMAAPDNPSNAVEWAMAEMVNKPEILRKAMEEIDRVVGKERLVQESDIPKLNYVKAILREAFRLHPVAAFNLPHVALSDTTVAGYHIPKGSQVLLSRYGLGRNPKVWADPLCFKPERHLNECSEVTLTENDLRFISFSTGKRGCAAPALGTALTTMMLARLLQGFTWKLPENETRVELMESSHDMFLAKPLVMVGDLRLPEHLYPTVK | – | – | – | – | – | 21
